One may read the IC50 as the midpoint of a concentration-inhibition curve.

The source of these data is patent US9221809B2 (MERCK SHARP & DOHME CORP., priority 2011, dated 2015).

Where a name gives a salt, the structure may show the parent alone.

IRAK4, sequence (Q9NWZ3 whole entry): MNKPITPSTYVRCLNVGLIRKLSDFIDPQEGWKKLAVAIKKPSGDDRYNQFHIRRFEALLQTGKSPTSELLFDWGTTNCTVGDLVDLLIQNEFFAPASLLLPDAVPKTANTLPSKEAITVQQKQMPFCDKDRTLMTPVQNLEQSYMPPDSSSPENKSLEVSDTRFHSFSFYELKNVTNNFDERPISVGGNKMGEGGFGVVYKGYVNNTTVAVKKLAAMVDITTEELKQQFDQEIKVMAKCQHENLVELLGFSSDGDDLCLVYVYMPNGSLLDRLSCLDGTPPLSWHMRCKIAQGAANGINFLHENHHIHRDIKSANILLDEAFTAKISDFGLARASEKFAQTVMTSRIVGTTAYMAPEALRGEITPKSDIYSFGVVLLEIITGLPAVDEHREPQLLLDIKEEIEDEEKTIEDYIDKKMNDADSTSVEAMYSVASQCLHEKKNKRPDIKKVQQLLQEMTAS

This experiment addresses IRAK4 (Homo sapiens (Human), UniProt Q9NWZ3). Nature of the experiment: IRAK4 kinase activity, IMAP fluorescence polarization assay. Type of experiment: biochemical. The settings on record: 100 μM ATP, 0.5 nM GST tagged IRAK4; read-out: IRAK4 IC50. The protocol:
The kinase activity of IRAK4 is determined by its ability to catalyze the phosphorylation of a fluorescent polypeptide substrate. The extent of phosphorylation is measured using IMAP technology (Molecular Devices) where the phosphorylated fluorescent substrate binds to the large M(III)-based nanoparticles which reduces the rotational speed of the substrate and thus increases its fluorescent polarization (FP).
Assay Procedure: A 20 μl reaction mixture contains 10 mM TriHCl, pH 7.2, 0.5 nM GST tagged IRAK4 (SignalChem), 100 nM fluorescent peptide substrate (RP7030, Molecular Devices), 100 μM ATP, 1 mM DTT, 1 mM MgCl2, and 0.01% Tween 20. The reaction is initiated by the addition of ATP. After incubation for 30 minutes at 25° C., 60 μl of Progressive IMAP Reagent (Molecular Devices) is added to stop the reaction. Change in RP7030's FP is determined by a FP reader (Analyst HT, LJL BioSystems)
On to `O=c1[nH]c(NC2CCC2)nc(N[C@@H]2C[C@H](CO)[C@@H](O)[C@H]2O)c1-c1cscn1` [Example 23, 2-(Cyclobutylamino)-6-((1R,2S,3R,4R)-2,3-dihydroxy-4-(hydroxymethyl)cyclopentylamino)-5-(thiazol-4-yl)pyrimidin-4(3H)-one.HCl], for which the IC50 turned out to be 1790 nM.
For the compound `O=c1[nH]c(N2CCCC2)nc(N[C@@H]2C[C@H](CO)[C@@H](O)[C@H]2O)c1-c1nc2ccccc2s1` [Example 25, 5-(Benzo[d]thiazol-2-yl)-6-(((1R,2S,3R,4R)-2,3-dihydroxy-4-(hydroxymethyl)cyclopentyl)amino)-2-(pyrrolidin-1-yl)pyrimidin-4(3H)-one.HCl], the IC50 is 18 nM.
In the case of `O=c1[nH]c(N2CCC(F)(F)CC2)nc(N[C@@H]2C[C@H](CO)[C@@H](O)[C@H]2O)c1-c1nc2ccccc2s1` [Example 27, 5-(Benzo[d]thiazol-2-yl)-2-(4,4-difluoropiperidin-1-yl)-6-(((1R,2S,3R,4R)-2,3-dihydroxy-4-(hydroxymethyl)cyclopentyl)amino)pyrimidin-4(3H)-one.HCl], the IC50 turned out to be 135 nM.
With `CN(C)c1nc(N[C@@H]2C[C@H](CO)[C@@H](O)[C@H]2O)c(-c2nc3ccccc3s2)c(=O)[nH]1` [Example 30, 5-(Benzo[d]thiazol-2-yl)-6-(((1R,2S,3R,4R)-2,3-dihydroxy-4-(hydroxymethyl)cyclopentyl)amino)-2-(dimethylamino)pyrimidin-4(3H)-one.HCl], the IC50 came out at 542 nM.
Consider `O=c1[nH]c(N2CCC2)nc(N[C@@H]2C[C@H](CO)[C@@H](O)[C@H]2O)c1-c1nc2ccccc2s1` [Example 31, 2-(Azetidin-1-yl)-5-(benzo[d]thiazol-2-yl)-6-(((1R,2S,3R,4R)-2,3-dihydroxy-4-(hydroxymethyl)cyclopentyl)amino)pyrimidin-4(3H)-one.HCl], for which the IC50 was 67 nM.
As for `Cc1csc(-c2c(N[C@@H]3C[C@H](CO)[C@@H](O)[C@H]3O)nc(N3CCOCC3)[nH]c2=O)n1` [Example 32, 6-(((1R,2S,3R,4R)-2,3-Dihydroxy-4-(hydroxymethyl)cyclopentyl)amino)-5-(4-methylthiazol-2-yl)-2-morpholinopyrimidin-4(3H)-one.HCl], the IC50 is 26.6 nM.
For `Cc1csc(-c2c(N[C@@H]3C[C@H](CO)[C@@H](O)[C@H]3O)nc(N3CCC(C(F)(F)F)CC3)[nH]c2=O)n1` [Example 33, 6-(((1R,2S,3R,4R)-2,3-Dihydroxy-4-(hydroxymethyl)cyclopentyl)amino)-5-(4-methylthiazol-2-yl)-2-(4-(trifluoromethyl)piperidin-1-yl)pyrimidin-4(3H)-one.HCl] the value was 93.6 nM.
As for `Cc1cccc(-c2c(N[C@@H]3C[C@H](CO)[C@@H](O)[C@H]3O)nc(N3CCCCC3)[nH]c2=O)n1` [Example 35, 6-(((1R,2S,3R,4R)-2,3-Dihydroxy-4-(hydroxymethyl)cyclopentyl)amino)-5-(6-methylpyridin-2-yl)-2-(piperidin-1-yl)pyrimidin-4(3H)-one.HCl], the IC50 came to 296 nM.
In the case of `O=c1[nH]c(NC2CNC2)nc(N[C@@H]2C[C@H](CO)[C@@H](O)[C@H]2O)c1-c1nc2ccccc2s1` [Example 36, 2-(Azetidin-3-ylamino)-5-(benzo[d]thiazol-2-yl)-6-(((1R,2S,3R,4R)-2,3-dihydroxy-4-(hydroxymethyl)cyclopentyl)amino)pyrimidin-4(3H)-one.HCl], the IC50 is 656 nM.
In the case of `O=c1[nH]c(NC2CCNC2)nc(N[C@@H]2C[C@H](CO)[C@@H](O)[C@H]2O)c1-c1nc2ccccc2s1` (stereo partly drawn) [Example 37, 5-(Benzo[d]thiazol-2-yl)-6-(((1R,2S,3R,4R)-2,3-dihydroxy-4-(hydroxymethyl)cyclopentyl)amino)-2-(pyrrolidin-3-ylamino)pyrimidin-4(3H)-one.HCl], the IC50 was determined as 2000 nM.
`O=c1[nH]c(N[C@@H]2CCCNC2)nc(N[C@@H]2C[C@H](CO)[C@@H](O)[C@H]2O)c1-c1nc2ccccc2s1` [Example 38, 5-(Benzo[d]thiazol-2-yl)-6-(((1R,2S,3R,4R)-2,3-dihydroxy-4-(hydroxymethyl)cyclopentyl)amino)-2-((R)-piperidin-3-ylamino)pyrimidin-4(3H)-one.HCl]: the IC50 is 5120 nM.
`O=c1[nH]c(N[C@H]2CCCNC2)nc(N[C@@H]2C[C@H](CO)[C@@H](O)[C@H]2O)c1-c1nc2ccccc2s1` [Example 39, 5-(Benzo[d]thiazol-2-yl)-6-(((1R,2S,3R,4R)-2,3-dihydroxy-4-(hydroxymethyl)cyclopentyl)amino)-2-((S)-piperidin-3-ylamino)pyrimidin-4(3H)-one.HCl]: the IC50 stood at 4260 nM.
For the compound `COCCCNc1nc(N[C@@H]2C[C@H](CO)[C@@H](O)[C@H]2O)c(-c2nc3ccccc3s2)c(=O)[nH]1` [Example 40, 5-(Benzo[d]thiazol-2-yl)-6-(((1R,2S,3R,4R)-2,3-dihydroxy-4-(hydroxymethyl)cyclopentyl)amino)-2-((3-methoxypropyl)amino)pyrimidin-4(3H)-one HCl], the IC50 was found to be 60 nM.
For `C[C@@]1(O)[C@H](O)[C@@H](CO)C[C@H]1Nc1nc(NC2CCC2)[nH]c(=O)c1-c1nc2ccccc2s1` [Example 41, 5-(Benzo[d]thiazol-2-yl)-2-(cyclobutylamino)-6-((1R,2S,3R,4R)-2,3-dihydroxy-4-(hydroxymethyl)-2-methylcyclopentylamino)pyrimidin-4(3H)-one.HCl] the value was 459 nM; for `CC(C)[C@H]1C[C@@H](Nc2nc(N3CCOCC3)[nH]c(=O)c2-c2nc3ccccc3s2)[C@H](O)[C@@H]1O` [Example 42, 5-(Benzo[d]thiazol-2-yl)-6-((1R,2S,3R,4R)-2,3-dihydroxy-4-isopropylcyclopentylamino)-2-morpholinopyrimidin-4(3H)-one.HCl], 72 nM.
For `CC(C)[C@H]1C[C@@H](Nc2nc[nH]c(=O)c2-c2nc3ccccc3s2)[C@H](O)[C@@H]1O` [Example 43, 5-(Benzo[d]thiazol-2-yl)-6-((1R,2S,3R,4R)-2,3-dihydroxy-4-isopropylcyclopentylamino)pyrimidin-4(3H)-one.HCl] the value was 850 nM; for `CC(C)[C@H]1C[C@@H](Nc2nc(N3CCC(c4cncnc4)CC3)[nH]c(=O)c2-c2nc3ccccc3s2)[C@H](O)[C@@H]1O` [Example 44, 5-(Benzo[d]thiazol-2-yl)-6-((1R,2S,3R,4R)-2,3-dihydroxy-4-isopropylcyclopentylamino)-2-(4-(pyrimidin-5-yl)piperidin-1-yl)pyrimidin-4(3H)-one.HCl], 23 nM; for `CC(C)(O)[C@H]1C[C@@H](Nc2nc(NC3CCC3)[nH]c(=O)c2-c2nc3ccccc3s2)[C@H](O)[C@@H]1O` [Example 45, 5-(Benzo[d]thiazol-2-yl)-2-(cyclobutylamino)-6-((1R,2S,3R,4S)-2,3-dihydroxy-4-(2-hydroxypropan-2-yl)cyclopentylamino)pyrimidin-4(3H)-one.HCl], 65 nM.
Consider `C[C@H]1C[C@@H](Nc2nc(N3CCOCC3)[nH]c(=O)c2-c2ccc3ccccc3n2)[C@H](O)[C@@H]1O` [Example 46, 6-((1R,2S,3R,4S)-2,3-Dihydroxy-4-methylcyclopentylamino)-2-morpholino-5-(quinolin-2-yl)pyrimidin-4(3H)-one.HCl], for which the IC50 came out at 5 nM.
On to `C[C@H]1C[C@@H](Nc2nc(N3CCOCC3)[nH]c(=O)c2-c2nc3ccccc3s2)[C@H](O)[C@@H]1O` [Example 47, 5-(Benzo[d]thiazol-2-yl)-6-((1R,2S,3R,4S)-2,3-dihydroxy-4-methylcyclopentylamino)-2-morpholinopyrimidin-4(3H)-one.HCl], for which the IC50 is 23 nM.
Turning to `O=c1[nH]c(NC2CCC2)nc(N[C@@H]2CC[C@@H](O)[C@H]2O)c1-c1nc2ccccc2s1` [Example 48, 5-(Benzo[d]thiazol-2-yl)-2-(cyclobutylamino)-6-((1R,2S,3R)-2,3-dihydroxycyclopentylamino)pyrimidin-4(3H)-one.HCl], the IC50 was 2260 nM.
Take `O=c1[nH]c(NC2CCC2)nc(NC[C@H](O)CO)c1-c1nc2ccccc2s1` [Example 49, (S)-5-(Benzo[d]thiazol-2-yl)-2-(cyclobutylamino)-6-(2,3-dihydroxypropylamino)pyrimidin-4(3H)-one.HCl]: the IC50 was determined as 5330 nM.
As for `O=c1[nH]c(Nc2cncnc2)nc(N[C@@H]2C[C@H](CO)[C@@H](O)[C@H]2O)c1-c1nc2ccccc2s1` [Example 51, 5-(Benzo[d]thiazol-2-yl)-6-(((1R,2S,3R,4R)-2,3-dihydroxy-4-(hydroxymethyl)cyclopentyl)amino)-2-(pyrimidin-5-ylamino)pyrimidin-4(3H)-one.HCl], the IC50 is 345 nM.
For `O=c1[nH]c(Nc2ccc(F)cc2)nc(N[C@@H]2C[C@H](CO)[C@@H](O)[C@H]2O)c1-c1nc2ccccc2s1` [Example 52, 5-(Benzo[d]thiazol-2-yl)-6-((1R,2S,3R,4R)-2,3-dihydroxy-4-(hydroxymethyl)cyclopentylamino)-2-(4-fluorophenylamino)pyrimidin-4(3H)-one.HCl] the value was 284 nM; for `O=c1[nH]c(Nc2ccccc2)nc(N[C@@H]2C[C@H](CO)[C@@H](O)[C@H]2O)c1-c1nc2ccccc2s1` [Example 53, 5-(Benzo[d]thiazol-2-yl)-6-((1R,2S,3R,4R)-2,3-dihydroxy-4-(hydroxymethyl)cyclopentylamino)-2-(phenylamino)pyrimidin-4(3H)-one.HCl], 327 nM.
In the case of `O=c1[nH]c(Nc2ccncc2)nc(N[C@@H]2C[C@H](CO)[C@@H](O)[C@H]2O)c1-c1nc2ccccc2s1` [Example 54, 5-(Benzo[d]thiazol-2-yl)-6-((1R,2S,3R,4R)-2,3-dihydroxy-4-(hydroxymethyl)cyclopentylamino)-2-(pyridin-4-ylamino)pyrimidin-4(3H)-one.HCl], the IC50 stood at 654 nM.
